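Protocol summary: plate cells (96-well), add compound at 5 concentrations, incubate 48 h, interpolate endpoints linearly. GI50: concentration for 50% inhibition of growth.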 Activity calls are given as the source filed them. Cut-off read from the data, not from the text of the source: active = GI50 up to about 1.1 µM and inactive = higher.
Legend:
Assay in all cases: DTP human tumour cell line panel, 48 h
RPMI-8226 = system: RPMI-8226
MOLT-4 = system: MOLT-4
RXF 393 = system: RXF 393
U-251 = system: U-251
IGROV-1 = system: IGROV-1
MDA-MB-435 = system: MDA-MB-435
SNB-19 = system: SNB-19
UACC-62 = system: UACC-62
COLO 205 = system: COLO 205
PC-3 = system: PC-3
HOP-92 = system: HOP-92
SN12C = system: SN12C
SNB-75 = system: SNB-75
SK-OV-3 = system: SK-OV-3
OVCAR-5 = system: OVCAR-5
A549 = system: A549
K562 = system: K562
HOP-62 = system: HOP-62
TK-10 = system: TK-10
SW-620 = system: SW-620

Measured: GI50

N#CC(C#N)SCc1ccccc1
inactive: RPMI-8226 6.18 µM | MOLT-4 1.67 µM | RXF 393 26.8 µM | U-251 19.5 µM | IGROV-1 23.1 µM | MDA-MB-435 17.6 µM | SNB-19 21 µM | UACC-62 34.4 µM | COLO 205 15.6 µM | PC-3 2.79 µM | HOP-92 15.5 µM | SN12C 8.3 µM | SNB-75 38 µM | SK-OV-3 24.4 µM | OVCAR-5 17.3 µM | A549 16.6 µM | K562 1.12 µM | HOP-62 15.7 µM | TK-10 26.5 µM | SW-620 4.59 µM

O=C(/C=C/c1ccc(-c2ccccc2)cc1)NCc1ccc(C(=O)NCCc2c[nH]c3ccccc23)cc1
inactive: RPMI-8226 60.8 µM | MOLT-4 16.6 µM | RXF 393 19.8 µM | U-251 11.9 µM | IGROV-1 11.4 µM | MDA-MB-435 > 100 µM | SNB-19 21.7 µM | UACC-62 29 µM | COLO 205 > 100 µM | PC-3 23.5 µM | HOP-92 20.1 µM | SN12C 5.08 µM | SNB-75 11.2 µM | SK-OV-3 14.5 µM | OVCAR-5 11.5 µM | A549 19.4 µM | K562 21.5 µM | HOP-62 9.14 µM | TK-10 26.2 µM | SW-620 34 µM

CO/C(=C/C(=O)C(Cl)(Cl)Cl)CC/C(=C\C(=O)C(Cl)(Cl)Cl)OC
inactive: RPMI-8226 22.3 µM | MOLT-4 21.4 µM | RXF 393 17.5 µM | U-251 22.8 µM | IGROV-1 16.3 µM | MDA-MB-435 19.8 µM | SNB-19 45.8 µM | UACC-62 22 µM | COLO 205 40.7 µM | PC-3 27.4 µM | HOP-92 18.4 µM | SN12C 23.2 µM | SNB-75 40.6 µM | SK-OV-3 30.4 µM | OVCAR-5 27.8 µM | A549 47.4 µM | K562 25.8 µM | HOP-62 20.8 µM | TK-10 30.8 µM | SW-620 53 µM

COc1c2c(nc3ccccc13)-c1cc(C(CC(=O)OC(C)(C)C)C(=O)OC(C)C)c(CO)c(=O)n1C2 (stereo not given)
inactive: RPMI-8226 21.3 µM | MOLT-4 3.67 µM | RXF 393 > 100 µM | U-251 42.5 µM | IGROV-1 47.4 µM | MDA-MB-435 > 94.2 µM | SNB-19 53.8 µM | UACC-62 17.8 µM | COLO 205 88.5 µM | PC-3 > 86.1 µM | HOP-92 40 µM | SN12C 45.8 µM | SNB-75 > 93.8 µM | SK-OV-3 > 40.2 µM | OVCAR-5 98.6 µM | A549 52.8 µM | K562 33.6 µM | HOP-62 24.9 µM | TK-10 > 100 µM | SW-620 > 96.6 µM

Clc1cccc(N/N=N/c2ccc(-c3nc4ccccc4s3)cc2)c1
inactive: RPMI-8226 58.7 µM | MOLT-4 18.4 µM | RXF 393 27.2 µM | U-251 36.9 µM | IGROV-1 21.4 µM | MDA-MB-435 30.6 µM | SNB-19 86.1 µM | UACC-62 25.2 µM | COLO 205 > 100 µM | PC-3 41.6 µM | HOP-92 20.4 µM | SN12C 21.9 µM | SNB-75 30.3 µM | SK-OV-3 42.3 µM | OVCAR-5 > 100 µM | A549 82.4 µM | K562 28.6 µM | HOP-62 > 100 µM | TK-10 94.6 µM | SW-620 33.7 µM

Cc1cc(NS(=O)(=O)c2ccc(Nc3c4ccccc4nc4ccc(C(=O)Nc5ccc(S(N)(=O)=O)cc5)cc34)cc2)no1
inactive: RPMI-8226 > 100 µM | MOLT-4 > 100 µM | RXF 393 > 100 µM | U-251 57.4 µM | IGROV-1 > 100 µM | MDA-MB-435 > 100 µM | SNB-19 > 100 µM | UACC-62 > 100 µM | COLO 205 > 100 µM | PC-3 > 100 µM | HOP-92 > 100 µM | SN12C > 100 µM | SNB-75 > 100 µM | SK-OV-3 > 100 µM | OVCAR-5 > 100 µM | A549 > 100 µM | K562 > 100 µM | HOP-62 > 100 µM | TK-10 > 100 µM | SW-620 > 100 µM

COc1cc(/C=C2\C[C@H]3[C@@H]4CC=C5C[C@@H](OC(C)=O)CC[C@]5(C)[C@H]4CC[C@]3(C)\C2=N\O)cc(OC)c1OC
inactive: MOLT-4 2.36 µM | U-251 7.41 µM | IGROV-1 10 µM | MDA-MB-435 3.82 µM | SNB-19 29.9 µM | UACC-62 6.73 µM | COLO 205 3.76 µM | PC-3 2.54 µM | HOP-92 2.59 µM | SN12C 6.37 µM | SNB-75 2.5 µM | SK-OV-3 25.5 µM | OVCAR-5 15 µM | A549 4.69 µM | K562 4.27 µM | HOP-62 13.1 µM | TK-10 13.7 µM | SW-620 7 µM
active: RPMI-8226 0.56 µM | RXF 393 0.942 µM

CCCCCOc1ccc(NC2=C(Cl)C(=O)c3c(O)ccc(O)c3C2=O)cc1
inactive: RPMI-8226 2.43 µM | MOLT-4 3.7 µM | RXF 393 4.71 µM | U-251 6.38 µM | IGROV-1 > 10 µM | MDA-MB-435 2.24 µM | SNB-19 7.87 µM | UACC-62 5.42 µM | COLO 205 2.63 µM | PC-3 5.25 µM | HOP-92 6.85 µM | SN12C 2.96 µM | SNB-75 > 10 µM | SK-OV-3 > 10 µM | OVCAR-5 > 10 µM | A549 > 10 µM | K562 3.27 µM | HOP-62 5.85 µM | TK-10 5.97 µM | SW-620 3.87 µM

C[C@@H]1S[C@H](c2c(Cl)cccc2Cl)N2Cc3ccccc3N=C12
inactive: RPMI-8226 > 100 µM | MOLT-4 > 100 µM | RXF 393 > 100 µM | U-251 > 100 µM | IGROV-1 > 100 µM | MDA-MB-435 > 100 µM | SNB-19 > 100 µM | UACC-62 97.3 µM | COLO 205 > 100 µM | PC-3 > 100 µM | HOP-92 > 100 µM | SN12C > 100 µM | SNB-75 > 100 µM | SK-OV-3 > 100 µM | OVCAR-5 > 100 µM | A549 > 100 µM | K562 > 100 µM | HOP-62 > 100 µM | TK-10 > 100 µM | SW-620 > 100 µM

O=c1[nH]c(=O)n([C@H]2CCCO2)cc1F
inactive: RPMI-8226 385 µM | MOLT-4 830 µM | RXF 393 769 µM | U-251 957 µM | IGROV-1 975 µM | MDA-MB-435 615 µM | SNB-19 3920 µM | UACC-62 569 µM | COLO 205 673 µM | PC-3 2510 µM | HOP-92 > 3120 µM | SN12C 838 µM | SNB-75 560 µM | SK-OV-3 681 µM | OVCAR-5 953 µM | A549 446 µM | K562 968 µM | HOP-62 547 µM | TK-10 764 µM | SW-620 887 µM

COc1cc(OCCN(C)C)c2[nH]c(C(=O)N3CC(CCl)c4ccc(N)cc43)cc2c1 (stereo not given)
active: RPMI-8226 0.0358 µM | MOLT-4 < 0.01 µM | RXF 393 0.0204 µM | U-251 0.0432 µM | IGROV-1 0.0148 µM | MDA-MB-435 0.0475 µM | SNB-19 0.114 µM | UACC-62 0.0404 µM | COLO 205 0.0395 µM | PC-3 0.0241 µM | HOP-92 0.0596 µM | SN12C 0.0597 µM | SNB-75 0.0676 µM | SK-OV-3 1.04 µM | OVCAR-5 0.0656 µM | A549 0.0377 µM | K562 0.0239 µM | HOP-62 0.0164 µM | TK-10 0.0973 µM | SW-620 0.0441 µM

Nc1ncn([C@H]2C[C@H](O)[C@@H](CO)O2)c(=O)n1 [DECITABINE]
inactive: RPMI-8226 54.7 µM | MOLT-4 11.6 µM | RXF 393 136 µM | U-251 102 µM | IGROV-1 102 µM | MDA-MB-435 2.49 µM | SNB-19 138 µM | UACC-62 83.8 µM | COLO 205 37.7 µM | PC-3 9.57 µM | HOP-92 175 µM | SN12C 83.8 µM | SNB-75 82.8 µM | SK-OV-3 76.2 µM | OVCAR-5 106 µM | A549 21.4 µM | K562 18.7 µM | HOP-62 111 µM | TK-10 46.8 µM | SW-620 29 µM

From ChEMBL document CHEMBL1201862, “PubChem BioAssay data set” (2004)
